Assay results as given in ChEMBL document CHEMBL1201862, “PubChem BioAssay data set” (2004).
Active and inactive are the calls of the source.

Experiments:
[1] = target: T1, Delta-type opioid receptor (Homo sapiens, UniProt P41143); assay: HTS Image-Based Screen for Agonists of the DOR Receptor. [Related pubchem assays (depositor defined):AID1777, AID1786, AID2133]; format: functional
[2] = target: T1, Delta-type opioid receptor; assay: HTS Image-Based Screen for Antagonists of the DOR Receptor. [Related pubchem assays (depositor defined):AID1777, AID1785, AID1786, AID2133]; format: functional
[3] = target: T2, Kappa-type opioid receptor (Homo sapiens, UniProt P41145); format: functional
T2 sequence (P41145 whole entry): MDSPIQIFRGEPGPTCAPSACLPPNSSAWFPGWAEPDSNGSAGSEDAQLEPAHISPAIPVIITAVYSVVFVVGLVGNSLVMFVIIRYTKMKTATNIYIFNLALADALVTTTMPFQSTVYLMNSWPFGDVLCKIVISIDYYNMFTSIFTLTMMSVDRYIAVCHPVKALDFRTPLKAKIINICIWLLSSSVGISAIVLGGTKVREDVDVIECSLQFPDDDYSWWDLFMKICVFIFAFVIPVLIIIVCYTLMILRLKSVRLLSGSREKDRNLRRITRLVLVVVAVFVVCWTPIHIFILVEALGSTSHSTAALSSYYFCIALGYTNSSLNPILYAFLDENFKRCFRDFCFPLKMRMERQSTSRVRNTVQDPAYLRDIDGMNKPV

Mu-type opioid receptor [4] = target: T3, Mu-type opioid receptor (Homo sapiens, UniProt P35372); assay: HTS Image-Based Screen for Agonists of the MOR Receptor. [Related pubchem assays (depositor defined):AID1777, AID1785, AID1786, AID2133]; format: functional
T3 sequence (P35372 whole entry): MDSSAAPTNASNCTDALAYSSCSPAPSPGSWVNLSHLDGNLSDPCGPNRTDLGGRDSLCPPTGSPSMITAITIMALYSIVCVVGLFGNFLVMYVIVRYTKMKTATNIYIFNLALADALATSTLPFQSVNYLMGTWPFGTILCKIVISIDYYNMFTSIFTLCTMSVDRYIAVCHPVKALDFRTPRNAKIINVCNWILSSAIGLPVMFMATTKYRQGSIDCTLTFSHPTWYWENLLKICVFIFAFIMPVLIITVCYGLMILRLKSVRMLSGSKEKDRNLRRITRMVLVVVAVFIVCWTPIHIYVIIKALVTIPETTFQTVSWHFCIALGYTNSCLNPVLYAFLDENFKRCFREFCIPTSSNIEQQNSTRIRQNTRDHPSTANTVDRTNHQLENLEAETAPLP

[5] = target: T2, Kappa-type opioid receptor; format: functional; remark: listed apart in the source
Beta-galactosidase = Beta-galactosidase (Escherichia coli, UniProt Q8VNN2); format: functional
Beta-galactosidase, sequence (Q8VNN2 whole entry): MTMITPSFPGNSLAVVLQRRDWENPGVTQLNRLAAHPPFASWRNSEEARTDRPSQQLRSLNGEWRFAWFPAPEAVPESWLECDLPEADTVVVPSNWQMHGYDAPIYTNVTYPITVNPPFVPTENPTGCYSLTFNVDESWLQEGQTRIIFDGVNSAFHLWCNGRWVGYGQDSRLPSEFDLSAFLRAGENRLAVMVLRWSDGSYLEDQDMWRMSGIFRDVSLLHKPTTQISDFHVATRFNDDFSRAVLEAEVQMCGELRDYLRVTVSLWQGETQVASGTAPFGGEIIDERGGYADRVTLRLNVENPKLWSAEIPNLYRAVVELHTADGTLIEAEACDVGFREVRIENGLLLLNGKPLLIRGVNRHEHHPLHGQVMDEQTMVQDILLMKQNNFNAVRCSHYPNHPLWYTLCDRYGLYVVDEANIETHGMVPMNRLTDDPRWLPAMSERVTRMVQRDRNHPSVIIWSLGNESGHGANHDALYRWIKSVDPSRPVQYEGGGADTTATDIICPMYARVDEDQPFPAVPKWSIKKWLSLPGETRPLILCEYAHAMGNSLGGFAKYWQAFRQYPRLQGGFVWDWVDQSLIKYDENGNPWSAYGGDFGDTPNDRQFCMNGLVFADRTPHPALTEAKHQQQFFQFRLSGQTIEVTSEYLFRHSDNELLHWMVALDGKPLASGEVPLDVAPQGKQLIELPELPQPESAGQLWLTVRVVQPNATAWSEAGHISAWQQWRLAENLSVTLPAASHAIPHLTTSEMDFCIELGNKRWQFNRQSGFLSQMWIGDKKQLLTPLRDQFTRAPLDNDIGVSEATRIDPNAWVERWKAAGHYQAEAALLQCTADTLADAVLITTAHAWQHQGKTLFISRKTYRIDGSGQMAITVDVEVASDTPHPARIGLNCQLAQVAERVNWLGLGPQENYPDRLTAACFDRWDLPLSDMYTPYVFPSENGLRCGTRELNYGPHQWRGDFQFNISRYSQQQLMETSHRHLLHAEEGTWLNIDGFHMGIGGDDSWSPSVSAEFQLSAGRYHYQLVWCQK

[6] = target: T2, Kappa-type opioid receptor; assay: SAR analysis of small molecule agonists of the kappa opioid receptor via a luminescent beta-arrestin assay - Set 3. [Related pubchem assays (depositor defined):AID1777, AID1785, AID1786, AID1966, AID2133, AID2136, AID2284, AID2500]; format: functional
Mu-type opioid receptor [7] = target: T3, Mu-type opioid receptor; assay: SAR Analysis of Agonists of the MOR Receptor using an Image-Based Assay - Set 3. [Related pubchem assays (depositor defined):AID1777, AID1785, AID1786, AID1966, AID2133, AID2136, AID2284, AID2285, AID2352]; format: functional
[8] = target: T2, Kappa-type opioid receptor; assay: kappa opioid receptor activation by imaging – image-based, set 3, SAR follow-up (AID 488833); format: functional
[9] = target: T1, Delta-type opioid receptor; assay: SAR Analysis of Agonists of the DOR Receptor using an Image-Based Assay - Set 3. [Related pubchem assays (depositor defined):AID1777, AID1786]; format: functional
SUMO-activating enzyme [10] = target: T4, SUMO-activating enzyme (Homo sapiens, UniProt Q9UBT2); assay: blockers of SAE1/SAE2–UBC9 SUMO transfer – biochemical, HTRF, uHTS, primary screen (AID 2006); format: protein-complex assay
T4 sequence (Q9UBE0 whole entry): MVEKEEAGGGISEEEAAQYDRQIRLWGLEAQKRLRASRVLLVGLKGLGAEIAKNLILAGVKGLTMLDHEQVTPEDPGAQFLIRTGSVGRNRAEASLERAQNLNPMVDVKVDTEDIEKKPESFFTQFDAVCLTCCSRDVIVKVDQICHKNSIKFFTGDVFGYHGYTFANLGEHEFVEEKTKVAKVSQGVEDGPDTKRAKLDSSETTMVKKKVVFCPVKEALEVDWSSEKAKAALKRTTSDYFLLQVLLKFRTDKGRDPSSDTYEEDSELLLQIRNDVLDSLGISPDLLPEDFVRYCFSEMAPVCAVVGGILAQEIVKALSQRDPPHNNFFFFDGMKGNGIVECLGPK
T4 sequence (Q9UBT2 whole entry): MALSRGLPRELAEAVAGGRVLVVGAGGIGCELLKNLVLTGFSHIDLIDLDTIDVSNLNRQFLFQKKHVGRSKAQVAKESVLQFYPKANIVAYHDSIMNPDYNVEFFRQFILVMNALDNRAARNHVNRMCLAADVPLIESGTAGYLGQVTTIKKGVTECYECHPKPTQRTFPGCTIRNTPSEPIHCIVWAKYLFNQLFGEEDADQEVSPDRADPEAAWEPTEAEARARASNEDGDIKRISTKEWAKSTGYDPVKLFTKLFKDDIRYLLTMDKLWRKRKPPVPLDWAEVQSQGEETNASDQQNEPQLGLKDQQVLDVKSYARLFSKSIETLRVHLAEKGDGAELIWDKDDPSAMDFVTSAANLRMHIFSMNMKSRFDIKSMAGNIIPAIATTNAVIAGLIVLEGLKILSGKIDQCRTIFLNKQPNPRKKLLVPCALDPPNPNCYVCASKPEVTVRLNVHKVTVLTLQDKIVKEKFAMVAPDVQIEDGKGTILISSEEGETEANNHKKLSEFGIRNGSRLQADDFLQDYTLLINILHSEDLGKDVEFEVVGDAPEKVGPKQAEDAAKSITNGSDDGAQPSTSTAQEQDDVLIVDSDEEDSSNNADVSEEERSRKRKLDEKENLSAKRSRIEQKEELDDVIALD

[11] = target: T5, Small ubiquitin-related modifier 1 (Homo sapiens, UniProt P63165); assay: SUMO1 protein interaction blockers, potency – biochemical, fluorescence polarization, uHTS hits, dose response (AID 624382); format: functional; conditions: read-out: IC50_Mean
T5 sequence (P63165 whole entry): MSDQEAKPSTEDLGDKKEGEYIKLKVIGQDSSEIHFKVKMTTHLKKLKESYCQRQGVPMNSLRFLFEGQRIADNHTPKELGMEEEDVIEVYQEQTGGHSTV

[12] = target: T6, Dual specificity protein phosphatase 3 (Homo sapiens, UniProt P51452); assay: VHR1 phosphatase inhibitors, primary screen, biochemical, absorbance, uHTS (AID 1654)
T6 sequence (P51452 whole entry): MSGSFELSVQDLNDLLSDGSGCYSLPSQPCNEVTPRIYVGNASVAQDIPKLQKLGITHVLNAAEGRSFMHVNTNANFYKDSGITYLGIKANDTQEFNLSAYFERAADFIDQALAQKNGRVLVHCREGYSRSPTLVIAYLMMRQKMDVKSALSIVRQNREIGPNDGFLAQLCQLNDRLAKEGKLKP

SUMO-activating enzyme [13] = target: T4, SUMO-activating enzyme; assay: blockers of UBC9-mediated SUMO conjugation – biochemical, AlphaScreen, SUMOylation inhibitor project, confirmation (AID 2018); format: functional
[14] = target: T5, Small ubiquitin-related modifier 1; assay: SUMO1 protein-protein binding blockers, potency – biochemical, FRET, dose response (AID 624383); format: functional; conditions: read-out: IC50_Mean
[15] = target: T7, Dual specificity protein phosphatase 6 (Rattus norvegicus, UniProt Q64346); assay: inhibition of rat DUSP6 enzyme activity – biochemical, in vitro, primary screen (AID 425)
T7 sequence (Q64346 whole entry): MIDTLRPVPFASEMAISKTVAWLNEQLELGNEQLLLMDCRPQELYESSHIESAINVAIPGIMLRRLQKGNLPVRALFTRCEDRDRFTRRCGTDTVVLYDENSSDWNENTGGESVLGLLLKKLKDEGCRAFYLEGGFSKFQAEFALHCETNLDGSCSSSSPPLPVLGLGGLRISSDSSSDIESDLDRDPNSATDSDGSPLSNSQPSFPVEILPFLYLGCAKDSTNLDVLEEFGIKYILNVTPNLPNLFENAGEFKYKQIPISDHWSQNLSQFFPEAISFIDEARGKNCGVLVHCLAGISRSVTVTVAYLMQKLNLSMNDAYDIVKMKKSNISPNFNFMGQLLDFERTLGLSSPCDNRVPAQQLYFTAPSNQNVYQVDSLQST

[16] = target: 72 kDa type IV collagenase (Homo sapiens, UniProt P08253); assay: Dose Response validation of uHTS RPN11 inhibitor hits using a MMP-2 Fluorescence assay.; format: functional
72 kDa type IV collagenase, sequence (P08253 whole entry): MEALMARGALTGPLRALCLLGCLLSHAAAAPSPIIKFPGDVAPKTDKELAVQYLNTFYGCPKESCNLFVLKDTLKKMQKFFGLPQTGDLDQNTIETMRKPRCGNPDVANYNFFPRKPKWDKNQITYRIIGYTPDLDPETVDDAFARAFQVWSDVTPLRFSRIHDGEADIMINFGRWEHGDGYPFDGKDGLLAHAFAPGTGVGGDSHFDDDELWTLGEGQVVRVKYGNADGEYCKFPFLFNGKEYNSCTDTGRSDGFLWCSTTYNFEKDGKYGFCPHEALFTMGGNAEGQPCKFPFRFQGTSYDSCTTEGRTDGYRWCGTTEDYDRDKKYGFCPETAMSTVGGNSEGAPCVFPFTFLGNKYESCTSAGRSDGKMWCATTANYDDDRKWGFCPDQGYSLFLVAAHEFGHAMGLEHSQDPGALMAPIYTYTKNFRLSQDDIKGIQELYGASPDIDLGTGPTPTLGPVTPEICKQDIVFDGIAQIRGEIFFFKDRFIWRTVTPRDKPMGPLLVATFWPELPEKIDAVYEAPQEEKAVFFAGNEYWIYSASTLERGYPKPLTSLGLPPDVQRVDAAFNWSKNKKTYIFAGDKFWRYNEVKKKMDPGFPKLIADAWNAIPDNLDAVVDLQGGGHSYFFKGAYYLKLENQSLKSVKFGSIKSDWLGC

Prothrombin = Prothrombin (Bos taurus, UniProt P00735); assay: thrombin protease inhibitors – biochemical, fluorescence polarization, uHTS hits, dose response (AID 602369); format: functional
[17] = target: T6, Dual specificity protein phosphatase 3; assay: VHR1 phosphatase inhibitors, biochemical (AID 1878)
[18] = target: 26S proteasome non-ATPase regulatory subunit 14 (Homo sapiens, UniProt O00487); assay: inhibition of proteasome subunit RPN11 – biochemical, fluorescence polarization, uHTS hits, confirmation (AID 602368); format: functional
[19] = target: T8, Tyrosine-protein phosphatase non-receptor type 7 (Homo sapiens, UniProt P35236); format: functional
T8 sequence (P35236 whole entry): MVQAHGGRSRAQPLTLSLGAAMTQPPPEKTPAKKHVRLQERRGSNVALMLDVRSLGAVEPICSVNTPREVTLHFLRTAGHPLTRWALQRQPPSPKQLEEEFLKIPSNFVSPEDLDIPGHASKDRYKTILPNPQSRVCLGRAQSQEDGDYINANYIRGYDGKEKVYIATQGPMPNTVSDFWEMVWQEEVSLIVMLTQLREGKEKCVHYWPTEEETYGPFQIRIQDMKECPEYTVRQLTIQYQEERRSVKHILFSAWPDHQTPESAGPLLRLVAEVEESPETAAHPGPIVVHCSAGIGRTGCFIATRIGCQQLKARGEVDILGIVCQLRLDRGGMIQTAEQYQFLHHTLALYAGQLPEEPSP

[20] = Luminescence Cell-Based Dose Response HTS to Identify Activators of Luciferase Translation or Activity in H4 […] Cells. [Related pubchem assays: 1829 (Project Summary), 1814 (Primary HTS)]; format: functional
H4 = assay: Luminescence Cell-Based Dose Response HTS to Identify Activators of 5'UTR Stem-Loop Driven Prion Protein mRNA Translation in H4 Neuroglioblastoma Cells. [Related pubchem assays: 1829 (Project Summary), 1814 (Primary HTS)]; format: functional; conditions: Homo sapiens
[21] = target: T9, Tyrosine-protein phosphatase non-receptor type 22 (Homo sapiens, UniProt Q9Y2R2); format: functional
T9 sequence (Q9Y2R2 whole entry): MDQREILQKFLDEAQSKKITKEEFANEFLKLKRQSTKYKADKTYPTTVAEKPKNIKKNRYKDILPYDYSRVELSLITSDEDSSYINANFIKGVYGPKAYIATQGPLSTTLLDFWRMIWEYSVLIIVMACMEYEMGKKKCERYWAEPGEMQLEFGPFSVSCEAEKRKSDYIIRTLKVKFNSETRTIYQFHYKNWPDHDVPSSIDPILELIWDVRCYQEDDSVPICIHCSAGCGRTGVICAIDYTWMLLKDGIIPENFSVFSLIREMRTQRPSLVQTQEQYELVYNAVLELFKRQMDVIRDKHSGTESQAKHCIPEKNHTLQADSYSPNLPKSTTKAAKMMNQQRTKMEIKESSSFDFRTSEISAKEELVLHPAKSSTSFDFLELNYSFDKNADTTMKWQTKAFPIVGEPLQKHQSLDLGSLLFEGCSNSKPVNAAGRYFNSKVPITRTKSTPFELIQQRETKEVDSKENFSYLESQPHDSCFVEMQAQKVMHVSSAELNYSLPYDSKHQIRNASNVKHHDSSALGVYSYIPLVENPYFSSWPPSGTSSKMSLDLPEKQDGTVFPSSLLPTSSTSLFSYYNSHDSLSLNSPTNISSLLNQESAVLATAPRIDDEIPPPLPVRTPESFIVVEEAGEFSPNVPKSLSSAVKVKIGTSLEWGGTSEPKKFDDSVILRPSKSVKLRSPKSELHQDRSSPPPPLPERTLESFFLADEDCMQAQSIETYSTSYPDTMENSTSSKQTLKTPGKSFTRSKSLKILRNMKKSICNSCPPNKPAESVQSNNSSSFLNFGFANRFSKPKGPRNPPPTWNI

[22] = target: T9, Tyrosine-protein phosphatase non-receptor type 22; format: functional; remark: listed apart in the source
[23] = Luminescence Cell-Based Dose Confirmation HTS to Identify Activators of 5'UTR Stem-Loop Driven Alpha-Synuclein mRNA Translation in H4 Neuroglioblastoma Cells. [Related pubchem assays: 1829 (Project Summary), 1814 (Primary HTS)]; format: functional

T1 sequence (P41143 whole entry): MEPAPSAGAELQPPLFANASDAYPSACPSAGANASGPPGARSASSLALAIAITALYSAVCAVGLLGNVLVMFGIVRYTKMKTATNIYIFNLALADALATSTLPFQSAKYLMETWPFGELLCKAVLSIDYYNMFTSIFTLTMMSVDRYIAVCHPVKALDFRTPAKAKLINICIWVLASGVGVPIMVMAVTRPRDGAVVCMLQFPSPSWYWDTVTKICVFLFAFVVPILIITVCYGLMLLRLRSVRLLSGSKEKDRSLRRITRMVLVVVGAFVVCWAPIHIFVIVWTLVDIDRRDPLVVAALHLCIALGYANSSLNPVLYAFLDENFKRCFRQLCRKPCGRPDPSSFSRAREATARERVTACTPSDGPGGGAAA

Cc1nc(-c2ccccn2)[nH]c(=S)c1Cl
EC50 [1]: > 32 µM (inactive)
IC50 [2]: > 32 µM (inactive)
IC50 [3]: > 32 µM
EC50 (Mu-type opioid receptor [4]): > 32 µM (inactive)
IC50 [5]: 20.3 µM (inactive)
EC50 (Beta-galactosidase): > 31.5 µM (inactive)

FC(F)(F)c1ccc(CSc2nnc(-c3ccccn3)n2Cc2cccs2)cc1
EC50 [6]: 1.23 µM (active)
EC50 (Mu-type opioid receptor [7]): > 32 µM (inactive)
EC50 [8]: 0.621 µM (active)
EC50 [9]: > 32 µM (inactive)

O=C(CSc1nnc(SCc2ccc(Cl)cc2)s1)N/N=C/c1c[nH]c2ccccc12
IC50 (SUMO-activating enzyme [10]): 48.3 µM (active)
IC50 [11]: > 66.6 µM (inactive)
IC50 [12]: 16.2 µM (active)
IC50 (SUMO-activating enzyme [13]): 1.54 µM (active)
IC50 [14]: 2.02 µM (active)
IC50 [15]: 76.5 µM (active)
IC50 [16]: > 100 µM (inactive)
IC50 (Prothrombin): 82.5 µM (active)
IC50 [17]: 3.82 µM (active)
IC50 [18]: 9.99 µM (active)

O=C1C2C(C(=O)N1/N=C/c1cccc([N+](=O)[O-])c1)C1C=CC2C12CC2 (stereo unspecified)
IC50 [19]: > 79.4 µM (inactive)
EC50 [20]: 7.44 µM (active)
EC50 (H4): 87.7 µM (active)
IC50 [21]: > 79.4 µM (inactive)
IC50 [22]: > 79.4 µM (inactive)
EC50 [23]: 15.4 µM (active)
